Test results reported in ChEMBL document CHEMBL1201862, “PubChem BioAssay data set” (2004).
The source made the active and inactive calls. Rule as the data show it, for most assays here: actives have a measured EC50 and inactives only a lower limit.

Test system: not listed separately
Experiment: Trypanosoma cruzi growth suppression in host cells – NIH3T3 host cells, beta-gal luminescence, confirmation (AID 2044);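 also: intracellular parasites grown in NIH/3T3 mouse fibroblasts as host cells; luminescent beta-galactosidase reporter signal from transgenic T. cruzi replicating inside host cells; inhibitors lower the luminescence signal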
Format: functional, cell-based
Settings: not given

Compound	EC50
OCCN1CCN(Cc2cccc(Oc3ccc(Cl)cc3)c2)CC1	3.92 µM (active)
CCN(CC)c1ccc(NC(=O)c2ccc3c(c2)c(C)c(C)n3C)cc1	1.63 µM (active)
Clc1ccc(-c2csc(Nc3cccnc3)n2)cc1	0.3 µM (active)
CCOC(=O)c1sc(NC(=O)c2ccc(S(=O)(=O)N(C)C)cc2)cc1C	2.21 µM (active)
CC(CCN(C)C)OC(=O)c1ccc(C(C)c2ccccc2)o1 (stereo not given)	0.845 µM (active)
O=C(CSc1nnnn1-c1cccc2ccccc12)Nc1ccc(N2CCOCC2)c(Cl)c1	0.457 µM (active)
O=C(Cn1c(C(=O)N2CCN(C3CCCCC3)CC2)cc2sccc21)c1ccccc1	2.53 µM (active)
CCc1cccc(C)c1NC(=O)COC(=O)c1c2c(nc3ccccc13)/C(=C\c1cccs1)CCC2	2.22 µM (active)
COc1ccc(-c2cc(C(F)(F)F)n3ncc(C(=O)N4CCc5ccccc5C4)c3n2)cc1	1.84 µM (active)
NC(=S)N/N=C\c1ccccc1OCc1ccccc1	0.623 µM (active)
Cc1nn(Cc2ccccc2)c(C)c1NC(=O)c1ccc([N+](=O)[O-])cc1[N+](=O)[O-]	0.307 µM (active)

Test system: not listed separately
Experiment: NIH3T3 cell viability loss – ATP luminescence, mouse fibroblasts, counter-screen, dose response (AID 2010);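 also: cells exposed to compound for about 90 hours before reading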
Format: functional, cell-based
Settings: not given

Compound	EC50
OCCN1CCN(Cc2cccc(Oc3ccc(Cl)cc3)c2)CC1	> 60 µM (not active)
CCN(CC)c1ccc(NC(=O)c2ccc3c(c2)c(C)c(C)n3C)cc1	> 60 µM (not active)
Clc1ccc(-c2csc(Nc3cccnc3)n2)cc1	> 60 µM (not active)
CCOC(=O)c1sc(NC(=O)c2ccc(S(=O)(=O)N(C)C)cc2)cc1C	8.88 µM (active)
CC(CCN(C)C)OC(=O)c1ccc(C(C)c2ccccc2)o1 (stereo not given)	> 60 µM (not active)
O=C(CSc1nnnn1-c1cccc2ccccc12)Nc1ccc(N2CCOCC2)c(Cl)c1	> 60 µM (inconclusive)
O=C(Cn1c(C(=O)N2CCN(C3CCCCC3)CC2)cc2sccc21)c1ccccc1	> 60 µM (not active)
CCc1cccc(C)c1NC(=O)COC(=O)c1c2c(nc3ccccc13)/C(=C\c1cccs1)CCC2	> 60 µM (not active)
COc1ccc(-c2cc(C(F)(F)F)n3ncc(C(=O)N4CCc5ccccc5C4)c3n2)cc1	> 60 µM (not active)
NC(=S)N/N=C\c1ccccc1OCc1ccccc1	> 30 µM (not active)
Cc1nn(Cc2ccccc2)c(C)c1NC(=O)c1ccc([N+](=O)[O-])cc1[N+](=O)[O-]	> 60 µM (not active)

Target: T1, Corticotropin-releasing factor receptor 2/Corticotropin-releasing factor-binding protein (Homo sapiens, UniProt P24387+Q13324)
T1 sequence (Q13324 whole entry): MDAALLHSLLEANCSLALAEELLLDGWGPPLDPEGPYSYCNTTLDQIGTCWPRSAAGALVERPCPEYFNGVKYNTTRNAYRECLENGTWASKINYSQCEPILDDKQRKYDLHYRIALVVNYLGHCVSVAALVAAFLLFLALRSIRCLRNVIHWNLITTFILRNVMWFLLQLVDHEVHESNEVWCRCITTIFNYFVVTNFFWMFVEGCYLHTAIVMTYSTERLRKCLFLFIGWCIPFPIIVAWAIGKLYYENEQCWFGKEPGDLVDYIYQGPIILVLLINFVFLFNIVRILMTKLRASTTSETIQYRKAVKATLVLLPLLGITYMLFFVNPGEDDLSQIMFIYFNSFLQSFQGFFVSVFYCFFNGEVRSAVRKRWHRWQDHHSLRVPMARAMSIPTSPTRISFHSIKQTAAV
T1 sequence (P24387 whole entry): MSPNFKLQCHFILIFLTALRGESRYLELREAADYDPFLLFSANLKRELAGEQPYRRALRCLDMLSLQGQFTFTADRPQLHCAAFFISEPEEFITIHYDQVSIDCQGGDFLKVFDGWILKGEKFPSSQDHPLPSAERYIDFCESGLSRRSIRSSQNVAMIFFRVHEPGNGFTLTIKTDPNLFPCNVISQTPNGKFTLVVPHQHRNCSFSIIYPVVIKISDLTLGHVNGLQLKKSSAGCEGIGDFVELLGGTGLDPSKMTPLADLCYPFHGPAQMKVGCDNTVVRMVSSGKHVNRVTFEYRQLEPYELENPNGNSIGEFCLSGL
Experiment: activators of CRF receptor 2 with binding protein – uHTS hits, confirmation (AID 602473)
Format: functional
Settings: read-out: EC50_Mean

Compound	EC50
Nc1nc2n(n1)C(c1cccc(Br)c1)CC(c1ccc(F)cc1)N2 (stereo not given)	> 53 µM (inactive)
Cc1ccc(Cn2nnc(C(=O)Nc3cccc(C)c3C)c2N)cc1	7.98 µM (active)
COc1ccc(CCn2c(C(C)C)nc3c(c(=O)c4ccccc4n3C)c2=O)cc1	7.87 µM (active)
Cc1ccc(NC(=N)Nc2nc(C)cc(C)n2)cc1	9.85 µM (active)

Target: Cytochrome P450 3A4 (Homo sapiens, UniProt P08684);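 also: CYP3A4 tested as one member of a cytochrome P450 panel screen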
Settings: not given

Chain of Cytochrome P450 3A4 (P08684 whole entry): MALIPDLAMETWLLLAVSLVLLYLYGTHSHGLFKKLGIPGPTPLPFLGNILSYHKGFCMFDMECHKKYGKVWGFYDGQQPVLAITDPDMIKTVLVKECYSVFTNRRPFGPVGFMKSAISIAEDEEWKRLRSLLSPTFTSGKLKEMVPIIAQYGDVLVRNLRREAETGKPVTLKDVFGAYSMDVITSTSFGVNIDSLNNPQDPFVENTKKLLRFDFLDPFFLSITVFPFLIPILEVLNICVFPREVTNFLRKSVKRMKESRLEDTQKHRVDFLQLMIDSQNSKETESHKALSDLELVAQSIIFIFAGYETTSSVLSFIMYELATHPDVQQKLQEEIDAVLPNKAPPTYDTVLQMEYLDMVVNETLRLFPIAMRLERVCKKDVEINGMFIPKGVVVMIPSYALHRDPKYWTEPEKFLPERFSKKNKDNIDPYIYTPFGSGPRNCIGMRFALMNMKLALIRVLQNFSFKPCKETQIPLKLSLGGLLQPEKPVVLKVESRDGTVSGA

Compound	AC50
O=S(=O)(c1ccccc1)N1CCC2(CCN(c3ncccn3)CC2)CC1	31.6 µM (inconclusive)
O=C(Oc1ccccc1)N1CCC2(CC1)CN(c1ccncc1)C2	15.8 µM (inconclusive)
C[C@@H]1O[C@@H]2C3=C(C(=O)[C@H]4O[C@@H]4[C@H]3O)C1[C@@H]1[C@@H](C)OC=C3[C@H](O)[C@H]4O[C@@H]4/C(=N\OCc4ccccc4)[C@@]321	6.31 µM (inconclusive)
C/C(CCN1CCCc2nc(C)c(C)cc21)=N\OC[C@@H](C)[C@H](OCc1ccccc1)C(C)C	3.16 µM (inconclusive)
Cc1c(C)n(C(=O)CN2CCC(C)CC2)c2ccccc12	17.8 µM (inconclusive)
CNC(=O)[C@@H]1O[C@@H](n2cnc3c(NCc4cccc(I)c4)ncnc32)[C@H](O)[C@@H]1O	39.8 µM (inconclusive)
O[Si@](CCCN1CCCCC1)(c1ccc(F)cc1)C1CCCCC1	3.98 µM (inconclusive)
O=c1c(-c2cc(F)cc(F)c2)nc2cncnc2n1Cc1ccc(F)cc1	10 µM (inconclusive)
CO[C@H]1COC(=O)C/C=C\[C@H](C)COC(=O)[C@@H](OCc2ccccc2)/C=C\[C@@H]1C	3.98 µM (inconclusive)
